“Also recorded” adds a separate entry of the source.
Columns and labels:
Assay type in all cases: in vivo, chickens (Gallus gallus)
cecal microbiome [1] = assay: Shotgun metagenomics (functional/taxonomic profiles, GSEA) of cecal microbiome, day 35 broilers; conditions: for functional processes enriched in cecal microbiome relative to controls (GSEA): day 35 cecal samples
Description: 74 frozen cecal samples from day 35 birds were sent to CosmosID (Rockville, MD) for shotgun metagenomics sequencing. DNA was extracted using the ZymoBIOMICS DNA Miniprep Kit (ZymoBIOMICS, Irvine, CA) according to the manufacturers protocol. The isolated DNA was quantified by Qbit (ThermoFisher, Coon Rapids, MN). DNA libraries were prepared using the Illumina Nextera XT library preparation kit (Illumina, San Diego, CA), with a modified protocol. Libraries were then sequenced on an Illumina HiSeq platform 2×150 bp.
Reads were trimmed and Illumina adapters removed using Trimmomatic (v 0.39) (Bolger et al., Bioinformatics 30, 2114-2120 (2014)) with options SLIDINGWINDOW:5:20 LEADING:3 TRAILING:3. Host reads (Gallus gallus, GenBank assembly GCA_000002315) and spike-in reads from Vibrio harveyii (ATCC 14126) were removed using Bowtie2 (v. 2.3.5.1) (Langmead et al., Nat Methods 9, 357-359 (2012)).
Taxonomic profiling of individual reads was carried out using Kaiju (v. 1.7.3) (Menzel et al., Nat Commun 7, 11257 (2016)) with the nr_euk database. Kaiju outputs were summarized for each read as the number of bases aligned to proteins in the reference database. In cases of individual reads mapping to more than one taxonomic group, the number of bases assigned to each taxon was calculated as the alignment length (in base pairs) multiplied by the fraction of bases assigned unambiguously to said taxon out of all the taxa to which the read mapped. The numbers of assigned bases per read were used to estimate species-level relative abundances using metametamerge (v. 1.1) (Piro, V. C., et al., Microbiome 5, 101 (2017).) taking into account the average coding length per species in the nr_euk database.
Functional profiling was done by first assembling the reads from each sample into contigs using Spades (v. 3.13.1, option --meta) (Nurk, S. et al., Genome Res 27, 824-834 (2017)), with default parameters, followed by protein prediction with Prokka (v. 1.14.5) (Seemann, T. Prokka: Bioinformatics 30, 2068-2069 (2014).). Predicted protein sequences were aligned to a reference database and using Diamond (v. 0.9.30) (Buchfink, B. et al. Nat Methods 18, 366-368 (2021)) and annotated based on the function assigned to the top hit in the database. To avoid misannotations, (Plata, G. et al. Nat Chem Biol 8, 848-854 (2012)) the inventors only considered hits with at least 70% identity and 70% query coverage. The reference database was built starting from 46,181 complete bacterial genomes downloaded from the PATRIC (Davis, J. J. et al. Nucleic Acids Res 48, D606-D612 (2020)) database representing at most 10 genomes per species from ˜400 taxonomic families including those most frequently observed in broiler microbiomes. To speed up functional annotations, protein sequences within each family in the database were clustered at 90% sequence identity using CD-HIT (v. 4.8.1) (Huang, Y. et al. Bioinformatics 26, 680-682 (2010)) and the longest sequence from each cluster was kept for the diamond search.
To quantify the abundance of each function per sample, reads were mapped to the corresponding contigs using BWA (v. 0.7.17) (Li, H. & Durbin, R. Bioinformatics 25, 1754-1760 (2009)), and reads mapping to each predicted protein were counted with HTseq (v. 0.11.3) (Anders, S. et al. Bioinformatics 31, 166-169 (2015)). Read counts per RAST functional role were TPM normalized based on the Prokka protein lengths (Zhao, S. et. al. RNA 26, 903-909 (2020)) and expressed in units of mean copy numbers per genome by calculating a normalization factor such that the median abundance of a set of universal-single copy bacterial genes (Creevey, C. J. et al. PLOS One 6, e22099 (2011)) was set to 1 (Manor, O. & Borenstein, E. Genome Biology 16, 53 (2015)). A similar procedure was used to produce a copy-number normalized matrix of functional roles across samples stratified by the bacterial genera of the protein hits used to transfer functional annotations. […]

[2] = tested on: AMR genes in the cecum microbiome; assay: AMR gene abundance analysis (AMR++ pipeline) of cecal microbiome; conditions: day 35 cecum; for AMR gene classes changed compared to controls: Mann-Whitney U p-value<0.05; for total number of different AMR genes detected: compared to control; for total AMR gene abundance compared to control: RPKM
Description: AMR gene abundances per sample were determined using the AMR++ pipeline (Lakin, S. M. et al., Nucleic Acids Res 45, D574-D580 (2017)) (v. 2.0.2) starting from the raw metagenomics sequences and using the MegaRes (v. 2.0.0) database. Only genes involved in drug resistance were considered. The AMR gene counts per sample obtained from AMR++ were expressed in unites of reads per kilobase per million reads (RPKM) based on the corresponding gene lengths from the MegaRes database. RPKM values across treatments were compared using the Mann-Whitney U test.

Ross 708 male broilers = assay: Clinical study of in-feed AGPs in broilers: weight gain and feed conversion; conditions: in-feed: 50 g/ton BMD, 20 g/ton avilamycin, 16.5 g/ton virginiamycin, 70 g/ton narasin; 35 days
Source text: 500 healthy Ross 708 male broilers sourced from a commercial hatchery were used in the experiment. […] Birds were individually tagged with a unique identifier and were randomly assigned to one of 25 floor pens (20 animals per pen). Groups of 5 pens were assigned to each of 5 different treatments. The 5 treatments included: 1) control birds fed least-cost diets as follows: A starter diet was fed from days 0 to 14 of the study, followed by a grower diet (14-28d) and a finisher diet (28-35d). 2) Birds fed the above diets supplemented with 50 g/ton BMD. 3) Supplemented with 20 g/ton avilamycin. 4) Supplemented with 16.5 g/ton Virginiamycin. And 5) supplemented with 70 g/ton narasin. Birds were raised for 35 days in a barn on top of used litter.
Individual body weights were collected on days 0, 7, 21 and 35. Pen weights were collected on days 14 and 28. Feed weigh backs for each pen were done on days 7, 14, 21, 28 and 35 of the study. Average bird weights and feed intake per pen were used to calculate weekly values of average daily gain and feed conversion ratios. Weekly values were compared between treatments using the Mann Whitney U test. On days 7, 21 and 35 three birds per pen were randomly selected and euthanized for the collection of cecal contents and blood. Blood was collected via wing vein venipuncture, except for birds that were too small, in which cases direct heart puncture was used. In both cases, blood was collected into vacutainer tubes and centrifuged to obtain serum. Cecal samples were collected by aseptically squeezing the cecum content into a sterile tube. Cecal samples were placed on dry ice immediately after collection. All samples were stored at −80° C. until processing.

cecal microbiome [3] = assay: 16S rRNA amplicon profiling of cecal microbiome of AGP treated broilers; conditions: days 21 and 35
Description: Total DNA from frozen cecal content samples were extracted using the Lysis and Purity kit (Shoreline Biome, Farmington, CT) following the manufacturer's protocol. The resulting DNA was used for library preparation with the Shoreline Biome V4 16S DNA Purification and Library Prep Kit (Shoreline Biome, Farmington, CT). PCR amplification of the V4 region of the 16S rRNA gene was performed using the 515F (5′[…]) and 806R (5′-[…]) primers. The resulting amplicons were then sequenced using 2×250 bp paired-end kits on the Illumina MiSeq platform.
Paired raw reads were processed with cutadapt (v. 2.5) (Martin, M. Cutadapt 2011 17, 3, doi: 10.14806/ej. 17.1.200 (2011)) followed by DADA2 (v.1.12.1) (Callahan et al., Nat Methods 13, 581-581 (2016)) to generate a matrix of read counts per sample at the level of amplicon sequence variants (ASVs). […] Reads assigned to the Vibrionaceae family were removed from the analysis, these correspond to a small amount (˜1% relative abundance) of Vibrio harveyii that was spiked in some of the samples. The mean sequencing depth after filtering was 43,955 reads per sample (standard deviation=12,391). The Chao, Simpson, and Shannon measures of alpha diversity were calculated from the matrix of raw counts using the scikit-bio (v. 0.5.6) python package and compared across treatments at each sampling time using the Mann-Whitney U test. […]

Compound	functional processes enriched in cecal microbiome relative to controls (GSEA) (cecal microbiome [1])	effect on AMR gene abundance profiles [2]	AMR gene classes changed compared to controls [2]	total number of different AMR genes detected [2]	impact on bird performance (Ross 708 male broilers)	similarity of 16S cecal microbiome composition to control samples (ANOSIM R score) (cecal microbiome [3])	total AMR gene abundance compared to control [2]	Salmonella and Escherichia relative abundance in cecum (cecal microbiome [1]; day 35) [%]
COC[C@H]1O[C@@H](OC2OC[C@@H]3O[C@]4(O[C@H]3[C@H]2OC(=O)C(C)C)O[C@H](C)[C@@](O)(C(C)=O)[C@@H]2OCO[C@H]24)[C@@H](OC)[C@@H](O)[C@@H]1O[C@@H]1O[C@H](C)[C@H](OC)[C@H](O[C@H]2C[C@@]3(C)OC4(C[C@@H](O)[C@H](O[C@H]5C[C@@H](O)[C@H](OC(=O)c6c(C)c(Cl)c(O)c(Cl)c6OC)[C@@H](C)O5)[C@@H](C)O4)O[C@@H]3[C@@H](C)O2)[C@H]1O (stereo partly drawn) [avilamycin]	protein synthesis and the Entner-Doudoroff pathway; also recorded: methionine metabolism, glycolysis, sporulation, and isoprenoid synthesis	minor	reduced the abundance of genes associated with resistance to nucleosides and macrolides	higher	smallest effects on performance	higher similarity		
Bacitracin methylene disalicylate [BMD]	biotin synthesis; also recorded: propanediol utilization, molybdenum-containing cofactor synthesis and CO2 fixation via the Wood-Ljungdahl pathway; also recorded: protein synthesis and the Entner-Doudoroff pathway	minor			smallest effects on performance	higher similarity	significant increase	
virginiamycin	betaine and pyridoxine biosynthesis, stress response, bacterial secretion systems, antimicrobial resistance (AMR), and biosynthesis of Gram-negative cell wall components	significantly different AMR gene abundance profiles	enriched (Mann-Whitney U p-value<0.05) for genes involved in resistance to multiple drugs	higher	increased performance compared to controls		significant increase	~50
